# Measured values as given in patent EP1234878A1, “USE OF DISEASE-ASSOCIATED GENE” (Takeda Chemical Industries, Ltd., priority 1999, dated 2001).
# Tested on: human CLCA1 protein, SEQ ID NO: 2 (human CLCA1 expressing CHO cells)
# Experiment: Cl- ion secretion assay using human CLCA1-expressing CHO cells (MEQ fluorescence, ionomycin stimulation)
# Type: cell-based
# Details: anionic transport inhibitor added at 200 µM or 10 µM (FIG. 11), room temperature for 30 minutes, then ionomycin 10 µM; Cl- ion fluorescence indicator MEQ
# Description: Human CLCA1-expressing plasmid pcDNA-hCLCA1 shown in EXAMPLE 6 was transfected to CHO cells using Gene transfer lyo (manufactured by Wako Pure Chemical Industries, Ltd.) in accordance with the attached manual. The cells were subjected to selective culture for 10 days in MEM-α medium (manufactured by GIBCO BRL) supplemented with 1 mg/ml of neomycin (G418) (manufactured by GIBCO BRL) to obtain the cells grown as human CLCA1 expressing CHO cells. The human CLCA1 expressing CHO cells and parent CHO cells were seeded on a 96-well plate (manufactured by Packard Inc.) coated with 2 µg/ml of fibronectin (manufactured by Itoham Foods, Inc.), respectively, in a concentration of 4 x 10^4 cells/well, followed by culturing at 37°C for 24 hours under 5% CO2. After completion, the culture solution was washed once with a buffer solution containing no Cl^- ions (2.4 mM K2HPO4, 0.6 mM KH2PO4, 10 mM D-glucose, 1 mM MgSO4, 1 mM CaSO4, 135 mM NaNO3, 10 mM HEPES, pH 7.4), and 1 mM of Cl^- ion fluorescence indicator 6-methoxy-N-ethylquinolinium iodide (MEQ, manufactured by Moelcular Probes, Inc.) was added in an amount of 100 µl/well to the culture solution, followed by incubation at 37°C for further 2 hours. The culture solution was further washed twice with a Cl^- ion-containing buffer solution (2.4 mM K2HPO4, 0.6 mM KH2PO4, 10 mM D-glucose, 1 mM MgSO4, 1 mM CaSO4, 135 mM NaCl, 10 mM HEPES, pH 7.4), and then allowed to stand at room temperature for 30 minutes. Each well was replaced by the buffer solution containing no Cl^- ions and ionomycin was added to make the concentration of 10 µM. Immediately thereafter, the fluorescence intensity was measured at an excited wavelength of 355 nm and a measurement wavelength of 460 nm, usingamulti-label counter Wallac1420ARVOsx (manufactured by Amersham Pharmacia Biotech).
# When stimulated with 10 µM ionomycin (manufactured by Wako Pure Chemical Industries, Inc.), the fluorescence intensity increased in human CLCA1 expressing CHO cells by about twice, as compared to the parent CHO cells (FIG. 10). […]
row,SMILES,increase of the fluorescence intensity by ionomycin stimulation of human CLCA1 expressing CHO cells
1,"O=S(=O)(O)c1cc(N=C=S)ccc1C=Cc1ccc(N=C=S)cc1S(=O)(=O)O [4,4'-diisothiocyanastilbene-2,2'-disulfonic acid]",suppressed
2,O=C(O)c1cccnc1Nc1cccc(C(F)(F)F)c1 [niflumic acid],suppressed
3,O[C@H](CS)[C@H](O)CS (racemic) [dithiothreitol],suppressed
